These results are taken from patent US8853424B2 (Japan Science and Technology Agency, priority 2008, dated 2014).

This assay relates to Truncated N-terminal huntington 150 Q-EGFP-Neuron 2a cells. The experiment in a line: Measurement of x-Fold (polyglutamine aggregation inhibitory activity). Format: cell-based. How it is done: In the present invention, the polyglutamine aggregation inhibitory activity (x-Fold) can be measured, for example, by the method described in the Example.
The number of the aggregated cells, and the total number of cells were counted by Array Scan V T1 (manufactured by Cellomics, Pittuburg, USA), and the ratio of the aggregated cells to the total number of cells was determined (x-Fold). […]

The mark [1] stands for this setting: ratio of aggregated cells to total number of cells, compound 20 μM, 20 hr, almost 1 without compound, smaller = stronger inhibition.
Where [2] appears, read: polyglutamine aggregation inhibitory activity, Table 1.

Regarding `NCCOB(c1ccc(Oc2ccccc2)cc1)c1ccc(Oc2ccc(B(OCCN)c3ccc(Oc4ccccc4)cc3)cc2)cc1` [Example 398, bis(4,4′-(phenoxyphenyl-aminoethoxyboryl)phenyl)ether], the x-Fold (polyglutamine aggregation, Truncated N-terminal huntington 150 Q-EGFP-Neuron 2a cells) is 0.88 and the x-Fold under setting [1] is on record as 0.88.

`Cc1ccc(B(OCCN(C)C)c2ccc(C)c(Cl)c2)cc1Cl` [Example 207, di(3-chloro-4-methylphenyl)dimethylaminoethylborinate]: the x-Fold was determined as 0.91 under setting [2] and 0.91 under setting [1]. Take `Cc1ccc(B(OC(=O)C(N)CC(N)=O)c2ccc(C)c(Cl)c2)cc1Cl` (stereo not drawn) [Example 448]: the x-Fold under setting [1] came to 0.95. As to `Cc1ccc(Cl)cc1B(OCCN)c1cc(Cl)ccc1C` [Example 166, di(3-chloro-6-methylphenyl)aminoethylborinate], under setting [1], the x-Fold came out at 0.70. As for `OB(c1ccc(C(F)(F)F)cc1)c1ccc(C(F)(F)F)cc1` [Example 230, di(trifluoromethylphenyl)borinic acid], the x-Fold (polyglutamine aggregation inhibitory activity, Table 1, listed as 4138) is listed as 1.03 and the x-Fold under setting [1] is listed as 1.03. For the compound `OB(c1cccs1)c1cccs1` [Example 253], the x-Fold under setting [1] amounted to 1.11.

Turning to `Cc1ccc(B(OCC(N)Cc2ccccc2)c2ccc(C)c(Cl)c2)cc1Cl` (stereo not drawn) [Example 208, di(3-chloro-4-methylphenyl)-2-benzyl-2-aminoethylborinate], the x-Fold is on record as 0.67 under setting [2] and 0.67 under setting [1]. In the case of `Cc1ccc(Cl)cc1B(OCCNCc1ccccc1)c1cc(Cl)ccc1C` [Example 164, di(3-chloro-6-methylphenyl)benzylaminoethylborinate], under setting [1], the x-Fold was 0.67. `FC(F)(F)c1ccc(C(OB(c2ccccc2)c2cc(B(OC(c3ccc(C(F)(F)F)cc3)c3ccccn3)c3ccccc3)cc(B(OC(c3ccc(C(F)(F)F)cc3)c3ccccn3)c3ccccc3)c2)c2ccccn2)cc1` (stereo not drawn) [Example 132, 1,3,5-tri(2-pyridyl-4-trifluoromethylphenylmethoxyphenylboryl)benzene]: the x-Fold by setting is: under setting [2], 0.95; under setting [1], 0.95. Turning to `CN(C)CCOB(c1ccccc1)c1cccc(COCc2cccc(B(OCCN(C)C)c3ccccc3)c2)c1` [Example 172, bis(3,3′(phenyldimethylaminoethoxyboryl)benzyl)ether], the x-Fold (polyglutamine aggregation inhibitory activity, Table 1, listed as 2024) stood at 1.22 and the x-Fold under setting [1] worked out at 1.22. Regarding `NC(COB(c1ccccc1)c1ccccc1)Cc1ccccc1` [Example 212, diphenyl(R) 2-benzyl-2-aminoethyl borinate], the x-Fold reads like this: (polyglutamine aggregation inhibitory activity, Table 1, listed as 3073) 0.75; under setting [1], 0.75. `NC(COB(c1ccccc1)c1ccccc1)Cc1ccccc1` [Example 213, diphenyl(S) 2-benzyl-2-aminoethyl borinate]: the x-Fold runs as follows: (polyglutamine aggregation inhibitory activity, Table 1, listed as 3075) 1.00; under setting [1], 1.00.

Regarding `NCC(=O)OB(c1ccccc1)c1ccc(Oc2ccc(B(OC(=O)CN)c3ccccc3)cc2)cc1` [Example 169, di((phenylglycine-O,N boryl)phenyl)ether], the x-Fold under setting [1] was 0.78. For `NCCOB(c1ccccc1)c1cccc(COCCc2ccccc2B(OCCN)c2ccccc2)c1` [Example 369], the x-Fold is reported as 1.10 under setting [2] and 1.10 under setting [1]. Turning to `OB(O)c1cccc2ccccc12` [Example 324, naphthaleneboronic acid], the x-Fold stood at 0.76 under setting [2] and 0.76 under setting [1]. Consider `OB(c1ccccc1)c1cccc(COCc2ccccc2B(O)c2ccccc2)c1` [Example 124, (2-phenylhydroxyborylbenzyl)(3-(phenylhydroxyboryl)benzyl)ether], for which the x-Fold by setting is: (polyglutamine aggregation inhibitory activity, Table 1, listed as 656) 0.96; under setting [1], 0.96.
